For experiment [1], the system named is Staphylococcus aureus in diluted positive blood culture sample. As to the kind of experiment: Direct-from-positive blood culture AST on the instrument, Staphylococcus aureus. The experiment is classed as cell-based. To be noted: diluted positive blood culture sample from the clinical lab, FIG. 34, read-out: Our MIC based on the curves. The source says: (§1) In one embodiment, the application of the system is to conduct phenotypic antimicrobial susceptibility testing on gram positive and gram-negative organisms from a positive blood sample without plating for an isolate. In this embodiment, the positive blood sample is adjusted to the desired microbial concentration. In this embodiment our method deploys a series of tightly controlled environmental factors, such as temperature, humidity, CO2, along with the use of Mueller-Hinton-II defined media allowing for the testing of these organisms as specified by CLSI. […]
(§2) The workflow involves use of a sample preparation kit (if and as needed) to process the sample to be tested (based on the sample type). […] The cassette is then loaded into one of the open bays/readers within the instrument. The reader also has an RFID scanner to record the cassette location i.e., the bay/reader it is inserted into within the instrument. The cassette is then autonomously incubated within the instrument, during which all wells within the cassette are read independently by the reader at regular specified time intervals, until the test is complete. The test completion is determined either by the prespecified time period for the cassette to be run, or until the software algorithm running the data analysis in real-time determines the necessary change to the call to complete the test. […]

Experiment [2] has the same test system. Briefly: In-house broth microdilution test (expected MIC), Staphylococcus aureus. To be noted: clinical positive blood culture sample, FIG. 34, read-out: expected MIC value (based on in-house broth microdilution test). The experiment is classed as cell-based. The method, then: (§3) BMD refers to liquid suspension of an isolated culture in the presence of varying types and concentrations of antibiotics. The liquid cultures are incubated for a period of time at which the turbidity or cloudiness of the suspension is measured either visually, optically or using other detection means. The turbidity is caused by bacteria multiplying and/or a “growing” culture (resistant), whereas a susceptible culture or isolate would appear as clear or lacking turbidity. Use of a reading device permits this process to be semi-automated.
A general note: In broth dilution the organism is exposed to a series of concentrations in liquid medium.

In another experiment the test system is K pneumoniae 700603. Briefly: Optical scatter phenotypic AST on the instrument, K pneumoniae 700603. Type of experiment: cell-based. The conditions noted are these: K pneumoniae 700603 in CAMHB with blood (to mimic a positive blood culture vial); FIG. 30; read-out: Our MIC based on the curves.
Source text: (§4) In one embodiment, the application of the system is to conduct phenotypic antimicrobial susceptibility testing on gram positive and gram negative organisms from isolates or directly from a positive blood sample. In this embodiment, our method deploys a series of tightly controlled environmental factors, such as temperature, humidity, CO2, along with the use of Mueller-Hinton-II defined media allowing for the testing of these organisms as specified by CLSI. Using specific antibiotics, at various ranges, antibiotic classes, concentrations across the wells of the cassette and allowing bacteria to culture in the presence of antibiotic, one can determine the phenotypic AST results.
as §2, with “[…] Based on the statistical analysis, if the signal change was determined as significant for a given well that well” for “The test completion”, “considered to have detected” for “determined either by”, “analyte.” for “prespecified time period for the cassette to be run, or until the software algorithm running the data analysis in real-time determines the necessary change to the call to complete the test.”

For experiment [3], the system named is NG AR 0179 (Neisseria gonorrhoeae antibiotic resistant isolate 0179). Briefly: Optical scatter phenotypic AST on the instrument, NG AR 0179. The experiment is classed as cell-based. The conditions noted are these: normalized reading, 650 nm, FIG. 23, read-out: Our MIC based on the curves. From the text:
(§5) In one embodiment, the application of the system disclosed herein is to conduct phenotypic antimicrobial susceptibility testing on Neisseria gonorrhoeae (NG). NG is a fastidious organism and a difficult organism to culture in liquid nutrient broth. The instant invention uses a proprietary media designed for the broth culture of NG. Using specific antibiotics, each at multiple concentrations in each well within the cassette and allowing bacteria to culture in the presence of antibiotic, one can determine the phenotypic AST results. Data generated and illustrated in the figures was generated from samples ranging from single wells or a plurality of wells within one or more cassettes.
(§6) In one embodiment, the application of the system is to conduct phenotypic antimicrobial susceptibility testing on NG. […]
(§7) The workflow involves use of a sample preparation kit (if and as needed) to process the sample to be tested (based on the sample type). […] The cassette is then loaded into one of the open bays/readers within the instrument. The reader also has an RFID scanner to record the cassette location i.e., the bay/reader it is inserted into within the instrument. The cassette is then autonomously incubated within the instrument, during which all wells within the cassette are read independently by the reader at regular specified time intervals, until the test is complete. […]

Experiment [4] deals with S aureus 29213 (QC strain). Briefly: Optical scatter phenotypic AST on the instrument, S aureus 29213. The experiment is classed as cell-based. The conditions noted are these: S aureus 29213 (QC strain) in cation adjusted Mueller Hinton Broth (CAMHB); FIG. 28; read-out: Our MIC based on the curves.
Source text: as §4
(§8) The workflow involves use of a sample preparation kit (if and as needed) to process the sample to be tested (based on the sample type). […] The cassette is then loaded into one of the open bays/readers within the instrument. The reader also has an RFID scanner to record the cassette location i.e., the bay/reader it is inserted into within the instrument. The cassette is then autonomously incubated within the instrument, during which all wells within the cassette are read independently by the reader at regular specified time intervals, until the test is complete. […] Based on the statistical analysis, if the signal change was determined as significant for a given well that well is considered to have detected the analyte. […]

In experiment [5] the test system is E faecalis 29212 (QC strain). As to the kind of experiment: Optical scatter phenotypic AST on the instrument, E faecalis 29212. Type of experiment: cell-based. The conditions noted are these: E faecalis 29212 (QC strain) in CAMHB with blood (to mimic a positive blood culture vial); FIG. 29; read-out: Our MIC based on the curves.
Source text: as §4, §8

Experiment [6] deals with E faecalis 29212 (QC strain). The conditions noted are these: FIG. 29; cited from earlier work.
Experiment [7] concerns NG 49226 (QC strain). Briefly: Optical scatter phenotypic AST on the instrument, NG 49226. The experiment is classed as cell-based, Neisseria gonorrhoeae. To be noted: read-out: Our MIC based on the curves.
Source text: as §5, §6, §7

The subject of another experiment is AR Isolate AR 0817. Briefly: Optical scatter phenotypic AST on the instrument, AR Isolate AR 0817. The experiment is classed as cell-based. The conditions noted are these: Neisseria gonorrhoeae, FIG. 27, read-out: Our MIC from the instrument.
Source text: as §5, §6, §7

Experiment [8] has as its system Serratia marcescens in diluted positive blood culture sample. Briefly: Direct-from-positive blood culture AST on the instrument, Serratia marcescens. The experiment is classed as cell-based. To be noted: diluted positive blood culture sample from the clinical lab, FIG. 33, read-out: Our MIC based on the curves.
Source text: as §1, §2

Experiment [9] has the same test system. As to the kind of experiment: In-house broth microdilution test (expected MIC), Serratia marcescens. The conditions noted are these: clinical positive blood culture sample, FIG. 33, read-out: expected MIC value (based on in-house broth microdilution test). Type of experiment: cell-based. How it is done:
as §3

Experiment [10] relates to E coli 25922 (QC strain). To be noted: FIG. 25; cited from earlier work.
Experiment [11] has as its system NG AR 0165 (Neisseria gonorrhoeae antibiotic resistant isolate 0165). Briefly: Optical scatter phenotypic AST on the instrument, NG AR 0165. Type of experiment: cell-based. The conditions noted are these: normalized reading, 650 nm, FIG. 22, read-out: Our MIC based on the curves.
Source text: as §5, §6, §7

Experiment [12] has as its system E coli 25922 (QC strain). As to the kind of experiment: Optical scatter phenotypic AST on the instrument, E coli 25922. Type of experiment: cell-based. The conditions noted are these: normalized reading, 650 nm, FIG. 25, read-out: Our MIC based on the curves.
Source text: as §4, §8

Experiment [13] relates to NG 49226 (QC strain). To be noted: FIG. 24; cited from earlier work.
Experiment [14] has as its system NG AR 0165 (Neisseria gonorrhoeae antibiotic resistant isolate 0165). The conditions noted are these: FIG. 22; cited from earlier work.

Structures are written as SMILES. Converted amounts (≈) assume the structure as drawn. Like-named read-outs stand apart in the source and are kept apart here. Some results are limits rather than exact numbers.

As a reminder, the MIC is the least concentration at which growth counts as inhibited. In the case of `Cc1onc(-c2ccccc2)c1C(=O)N[C@@H]1C(=O)N2[C@@H]1SC(C)(C)[C@@H]2C(=O)O` [Oxacillin], the MIC in experiment [1] and in experiment [2] was greater than 2 µg/mL in each case.

As for `C[C@@H](O)[C@H]1C(=O)N2C(C(=O)O)=C(SCCN=CN)C[C@H]12` [Imipenem], the minimal inhibitory concentration (MIC) with K pneumoniae 700603 was 0.5 µg/mL (≈ 1.67 µM).

In the case of `CN(C)[C@@H]1C(O)=C(C(N)=O)C(=O)[C@@]2(O)C(O)=C3C(=O)c4c(O)cccc4[C@@](C)(O)[C@H]3C[C@@H]12` [Tetracycline], the MIC in experiment [3] stood at 2 µg/mL (≈ 4.5 µM); in experiment [4], 0.008 µg/mL (≈ 0.018 µM).

In the case of `CN[C@H](CC(C)C)C(=O)N[C@H]1C(=O)N[C@@H](CC(N)=O)C(=O)N[C@H]2C(=O)N[C@H]3C(=O)N[C@H](C(=O)N[C@H](C(=O)O)c4cc(O)cc(O)c4-c4cc3ccc4O)[C@H](O)c3ccc(c(Cl)c3)Oc3cc2cc(c3O[C@@H]2O[C@H](CO)[C@@H](O)[C@H](O)[C@H]2O[C@H]2C[C@](C)(N)[C@H](O)[C@H](C)O2)Oc2ccc(cc2Cl)[C@H]1O` [Vancomycin], the MIC in [5] was 4 µg/mL (≈ 2.76 µM). Besides, the “expected MIC value” in experiment [6] was 1 to 4 µg/mL.

On to `C=CC1=C(C(=O)O)N2C(=O)[C@@H](NC(=O)/C(=N\OCC(=O)O)c3csc(N)n3)[C@H]2SC1` [Cefixime], for which the MIC was determined as 0.008 µg/mL (≈ 0.0176 µM) in the experiment with NG 49226 (QC strain) [7] (Neisseria gonorrhoeae 49226 (QC strain), 5-well cassette system, FIG. 26) and 0.125 µg/mL (≈ 0.276 µM) in the experiment with AR Isolate AR 0817.

As to `CC1(C)S[C@@H]2[C@H](NC(=O)[C@H](N)c3ccccc3)C(=O)N2[C@H]1C(=O)O` [ampicillin], the minimal inhibitory concentration (MIC) was 16 µg/mL (≈ 45.8 µM) in experiment [8] and greater than 16 µg/mL in experiment [9].

Turning to `O=C(O)c1cn(C2CC2)c2cc(N3CCNCC3)c(F)cc2c1=O` [Ciprofloxacin], the MIC was 0.002 µg/mL (≈ 0.00604 µM) in the experiment with NG 49226 (QC strain) [7] (Neisseria gonorrhoeae, NG 49226 (QC strain), normalized reading, 650 nm, FIG. 24); 4 µg/mL (≈ 12.1 µM) in [11]; 0.008 µg/mL (≈ 0.0241 µM) in the experiment on E coli 25922 (QC strain) [12]. In the experiment on E coli 25922 (QC strain) [10], the “expected MIC value range (BMD method)” value was 0.004 to 0.016 µg/mL. Moreover, in the experiment with NG 49226 (QC strain) [13], the “expected MIC value range (per CDC agar dilution testing)” value is 0.001 to 0.008 µg/mL. In addition, the “expected MIC value (per CDC agar dilution testing)” value in experiment [14] was 8 µg/mL.

(Values after US20240247224A1, “SYSTEM AND METHOD FOR RAPID SUSCEPTIBILITY TESTING” (priority 2023, published 2024).)
